Blank lines part the entries; values can stand above or below the molecule they belong to. Active and inactive are the calls of the source. No cut-off for these calls is given here. Non-standard residues stand in square brackets, D forms with d. Residues, ends and D or L forms follow the SMILES beside them. βAla = NCCC(=O)O
Experiments:
Type in all cases: functional
Staphylococcus aureus [1] = assay: Antimicrobial activity against Staphylococcus aureus assessed as reduction of microbial growth incubated for 6 to 9 hr by macrodilution method; details: time 6-9 hrs
Escherichia coli [2] = assay: Antimicrobial activity against Escherichia coli assessed as reduction of microbial growth incubated for 6 to 9 hr by macrodilution method; details: time 6-9 hrs
Pseudomonas aeruginosa [3] = assay: Antimicrobial activity against Pseudomonas aeruginosa assessed as reduction of microbial growth incubated for 6 to 9 hr by macrodilution method; details: time 6-9 hrs
Staphylococcus aureus [4] = assay: Antimicrobial activity against Staphylococcus aureus assessed as reduction of microbial growth incubated for 18 to 24 hrs by microdilution method; details: time 18-24 hrs
Escherichia coli [5] = assay: Antimicrobial activity against Escherichia coli assessed as reduction of microbial growth incubated for 18 to 24 hrs by microdilution method; details: time 18-24 hrs
Pseudomonas aeruginosa [6] = assay: Antimicrobial activity against Pseudomonas aeruginosa assessed as reduction of microbial growth incubated for 18 to 24 hrs by microdilution method; details: time 18-24 hrs
Escherichia coli [7] = assay: Antimicrobial activity against Escherichia coli assessed as reduction of microbial growth incubated overnight
Pseudomonas aeruginosa [8] = assay: Antimicrobial activity against Pseudomonas aeruginosa assessed as reduction of microbial growth incubated overnight
Staphylococcus aureus [9] = assay: Antimicrobial activity against Staphylococcus aureus assessed as reduction of microbial growth incubated overnight
Staphylococcus aureus [10] = assay: Antimicrobial activity against Staphylococcus aureus
Escherichia coli [11] = assay: Antimicrobial activity against Escherichia coli
Pseudomonas aeruginosa [12] = assay: Antimicrobial activity against Pseudomonas aeruginosa
Staphylococcus aureus [13] = assay: Antimicrobial activity against Staphylococcus aureus assessed as reduction of microbial growth
Escherichia coli [14] = assay: Antimicrobial activity against Escherichia coli assessed as reduction of microbial growth
Pseudomonas aeruginosa [15] = assay: Antimicrobial activity against Pseudomonas aeruginosa assessed as reduction of microbial growth

MIC (Staphylococcus aureus [1]): > 100 µg/mL
MIC (Escherichia coli [2]): > 100 µg/mL
MIC (Pseudomonas aeruginosa [3]): > 100 µg/mL
Molecule: CC[C@H](C)[C@H](NC(=O)CN)C(=O)NCC(=O)N[C@@H](CCCCN)C(=O)N[C@@H](Cc1ccccc1)C(=O)N[C@@H](CC(C)C)C(=O)N[C@@H](Cc1c[nH]cn1)C(=O)N[C@@H](CO)C(=O)N[C@H](C)C(=O)N[C@@H](CCCCN)C(=O)N[C@@H](CCCCN)C(=O)N[C@@H](Cc1ccccc1)C(=O)N[C@H](C)C(=O)N[C@@H](CCCCN)C(=O)N[C@@H](C)C(=O)N[C@@H](Cc1ccccc1)C(=O)N[C@H](C(=O)N[C@H](C)C(=O)N[C@@H](CCC(=O)O)C(=O)N[C@H](C(=O)N[C@@H](CCSC)C(=O)N[C@@H](CC(N)=O)C(=O)N[C@@H](CO)C(N)=O)[C@@H](C)CC)C(C)C (H-GIGKFLHS[dA]KKF[dA]KAFV[dA]EIMNS-NH2)

MIC (Staphylococcus aureus [4]): 25 µg/mL
MIC (Escherichia coli [5]): 3.12 µg/mL
MIC (Pseudomonas aeruginosa [6]): 6.25 µg/mL
Molecule: H-RRRRRRRRRRGIGKFLHSAKKFGKAFVGEIMNS-OH

Molecule: CC[C@@H](C)[C@H](NC(=O)[C@@H](NC(=O)CNC(=O)[C@H](CC(=O)O)NC(=O)[C@H](CCCNC(=N)N)NC(=O)[C@@H](NC(=O)[C@H](CC(N)=O)NC(=O)[C@H](CCC(N)=O)NC(=O)CNC(=O)[C@@H](NC(=O)[C@H](CCCCN)NC(=O)[C@H](CCC(=O)O)NC(=O)[C@@H](NC(=O)[C@H](CCCCN)NC(=O)[C@H](CCCCN)NC(=O)[C@H](Cc1ccccc1)NC(=O)[C@H](CC(C)C)NC(=O)[C@H](CCCCN)NC(=O)[C@H](Cc1c[nH]c2ccccc12)NC(=O)[C@@H](N)CCCCN)[C@@H](C)CC)C(C)C)[C@@H](C)CC)[C@@H](C)CC)C(=O)N[C@@H](CCCCN)C(=O)N[C@@H](C)C(=O)NCC(=O)N1CCC[C@H]1C(=O)N[C@@H](C)C(=O)N[C@H](C(=O)N[C@@H](C)C(=O)N[C@H](C(=O)N[C@H](C(=O)NCC(=O)N[C@@H](CCC(N)=O)C(=O)N[C@@H](C)C(=O)N[C@H](C(=O)N[C@@H](CCC(N)=O)C(=O)N[C@H](C(=O)N[C@@H](C)C(=O)N[C@@H](CCCCN)C(=O)O)[C@@H](C)CC)[C@@H](C)O)C(C)C)C(C)C)C(C)C
LD (Escherichia coli [7]): 0.2 µM
LD (Pseudomonas aeruginosa [8]): 2 µM
LD (Staphylococcus aureus [9]): >200 µM

Molecule: H-KWKLFKKGIGAVLKV-OH
LD (Staphylococcus aureus [10]): 29 µM
LD (Escherichia coli [11]): 4 µM
LD (Pseudomonas aeruginosa [12]): 15 µM

MIC (Staphylococcus aureus [1]): 5 µg/mL
MIC (Escherichia coli [2]): 5 µg/mL
MIC (Pseudomonas aeruginosa [3]): 50 µg/mL
Molecule: CC[C@H](C)[C@H](NC(=O)CNC(=O)CCN)C(=O)NCC(=O)N[C@@H](CCCCN)C(=O)N[C@@H](Cc1ccccc1)C(=O)N[C@@H](CC(C)C)C(=O)N[C@@H](Cc1c[nH]cn1)C(=O)N[C@@H](C)C(=O)N[C@@H](C)C(=O)N[C@@H](CCCCN)C(=O)N[C@@H](CCCCN)C(=O)N[C@@H](Cc1ccccc1)C(=O)N[C@@H](C)C(=O)N[C@@H](CCCCN)C(=O)N[C@@H](C)C(=O)N[C@@H](Cc1ccccc1)C(=O)N[C@H](C(=O)N[C@@H](C)C(=O)N[C@@H](CCC(=O)O)C(=O)N[C@H](C(=O)N[C@@H](CCSC)C(=O)N[C@@H](CC(N)=O)C(=O)N[C@@H](CO)C(N)=O)[C@@H](C)CC)C(C)C (H-[βAla]GIGKFLHAAKKFAKAFVAEIMNS-NH2)

Molecule: CC[C@H](C)[C@H](NC(=O)CN)C(=O)NCC(=O)N[C@@H](C)C(=O)N[C@H](C(=O)N[C@@H](CC(C)C)C(=O)N[C@@H](CCCCN)C(=O)N[C@H](C(=O)N[C@@H](CC(C)C)C(=O)N[C@H](C(=O)N[C@H](C(=O)NCC(=O)N[C@@H](CC(C)C)C(=O)N[C@@H](CCCCN)C(=O)N[C@@H](Cc1c[nH]c2ccccc12)C(=O)N[C@@H](CCCCN)C(=O)N[C@@H](CC(C)C)C(=O)N[C@@H](Cc1ccccc1)C(=O)N[C@@H](CCCCN)C(=O)N[C@@H](CCCCN)C(=O)N[C@H](C(=O)N[C@@H](CCC(=O)O)C(=O)N[C@@H](CCCCN)C(=O)N[C@H](C(=O)NCC(=O)N[C@@H](CCC(N)=O)C(=O)O)C(C)C)[C@@H](C)CC)[C@@H](C)O)[C@@H](C)O)C(C)C)C(C)C
LD (Escherichia coli [7]): 1 µM
LD (Pseudomonas aeruginosa [8]): 5 µM
LD (Staphylococcus aureus [9]): 5 µM

MIC (Staphylococcus aureus [13]): inactive
MIC (Escherichia coli [14]): 20 µg/mL
MIC (Pseudomonas aeruginosa [15]): inactive
Molecule: H-KFLHSAKKFGKAFVGEIMNS-OH

Molecule: CC[C@H](C)[C@H](NC(=O)CNC(=O)[C@@H]1CCCN1C(=O)CNC(=O)[C@H](C)NC(=O)[C@H](CCCCN)NC(=O)[C@@H](NC(=O)[C@@H](NC(=O)CNC(=O)[C@H](CC(=O)O)NC(=O)[C@H](CCCNC(=N)N)NC(=O)[C@@H](NC(=O)[C@H](CC(N)=O)NC(=O)[C@H](CCC(N)=O)NC(=O)CNC(=O)[C@@H](NC(=O)[C@H](CCCCN)NC(=O)[C@H](CCC(=O)O)NC(=O)[C@@H](NC(=O)[C@H](CCCCN)NC(=O)[C@H](CCCCN)NC(=O)[C@H](Cc1ccccc1)NC(=O)[C@H](CC(C)C)NC(=O)[C@H](CCCCN)NC(=O)[C@H](Cc1c[nH]c2ccccc12)NC(=O)[C@@H](N)CCCCN)[C@@H](C)CC)C(C)C)[C@@H](C)CC)[C@@H](C)CC)[C@@H](C)CC)C(=O)NCC(=O)N[C@@H](C)C(=O)N[C@H](C(=O)N[C@@H](CC(C)C)C(=O)N[C@@H](CCCCN)C(=O)N[C@H](C(=O)N[C@@H](CC(C)C)C(=O)N[C@H](C(=O)N[C@H](C(=O)NCC(=O)N[C@@H](CC(C)C)C(=O)O)[C@@H](C)O)[C@@H](C)O)C(C)C)C(C)C
LD (Escherichia coli [7]): 0.3 µM
LD (Pseudomonas aeruginosa [8]): 1 µM
LD (Staphylococcus aureus [9]): 6 µM

MIC (Staphylococcus aureus [1]): 10 µg/mL
MIC (Escherichia coli [2]): 2.5 µg/mL
MIC (Pseudomonas aeruginosa [3]): 25 µg/mL
Molecule: H-GIGKFLHAAKKFAKAFVAEIMNS-NH2

Molecule: H-KWKLFKKIGIGAVLKVLK-OH
LD (Staphylococcus aureus [10]): 7 µM
LD (Escherichia coli [11]): 0.5 µM
LD (Pseudomonas aeruginosa [12]): 3 µM

Molecule: H-KWKLFKKVLKVLTTG-OH
LD (Staphylococcus aureus [10]): 8 µM
LD (Escherichia coli [11]): 0.5 µM
LD (Pseudomonas aeruginosa [12]): 2 µM

Reference: ChEMBL document CHEMBL5321224, “Antimicrobial peptides: Structure, mechanism, and modification” (2023)
